biological target: T1, MerTK (Homo sapiens, UniProt Q12866); test: PAKT HTRF-HUVEC assay (pAkt Ser473 HTRF after anti-human MerTK-XL stimulation); format: cell-based; settings: HUVEC cells, 1 hour compound, stimulated with anti-human MerTK-XL 1 ug/mL for 10 minutes, read-out: inhibition of MerTK
T1 construct: Seed HUVECs (10K cells/well) in EBM-2 complete media; host or cells: HUVEC (primary human umbilical vein endothelial cells)
T1 sequence (Q12866 21-999): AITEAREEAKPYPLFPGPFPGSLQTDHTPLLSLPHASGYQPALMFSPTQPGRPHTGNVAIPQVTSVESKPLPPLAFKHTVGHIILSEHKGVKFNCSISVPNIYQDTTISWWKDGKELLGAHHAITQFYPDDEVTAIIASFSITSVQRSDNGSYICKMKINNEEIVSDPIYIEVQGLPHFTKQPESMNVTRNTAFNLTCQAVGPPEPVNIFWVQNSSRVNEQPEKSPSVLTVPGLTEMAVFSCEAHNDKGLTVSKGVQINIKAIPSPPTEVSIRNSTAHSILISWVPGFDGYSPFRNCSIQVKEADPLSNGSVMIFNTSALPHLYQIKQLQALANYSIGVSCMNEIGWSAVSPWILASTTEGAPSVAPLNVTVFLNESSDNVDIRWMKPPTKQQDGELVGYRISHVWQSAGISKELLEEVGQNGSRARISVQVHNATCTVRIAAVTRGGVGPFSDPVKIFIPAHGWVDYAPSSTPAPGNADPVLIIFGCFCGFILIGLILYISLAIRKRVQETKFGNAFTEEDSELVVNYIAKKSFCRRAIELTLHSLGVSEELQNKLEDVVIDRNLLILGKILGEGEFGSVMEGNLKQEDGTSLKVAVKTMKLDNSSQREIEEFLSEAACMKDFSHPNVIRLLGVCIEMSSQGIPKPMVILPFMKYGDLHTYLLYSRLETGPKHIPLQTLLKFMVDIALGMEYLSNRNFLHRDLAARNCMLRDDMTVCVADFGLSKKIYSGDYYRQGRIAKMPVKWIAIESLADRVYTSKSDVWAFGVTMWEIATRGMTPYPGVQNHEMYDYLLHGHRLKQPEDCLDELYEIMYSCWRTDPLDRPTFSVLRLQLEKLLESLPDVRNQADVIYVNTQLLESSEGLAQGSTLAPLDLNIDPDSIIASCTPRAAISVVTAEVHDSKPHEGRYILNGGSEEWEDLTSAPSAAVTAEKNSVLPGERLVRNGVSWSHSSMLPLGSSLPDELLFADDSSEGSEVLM
Summary of the method: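 HUVECs starved 3-4 h in basal medium, preincubated with compound 1 h at 37° C, then stimulated 10 min with cross-linked anti-human MerTK antibody (final 1 ug/mL). Lysates read for pAkt (Ser473) by HTRF; EC50 from curve fitting.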

Row | EC50 | Structure (SMILES)
1 | 57.7 nM | N#CC1CCN(Cc2ccc3c(c2)c(=O)n([C@H]2CC[C@H](O)CC2)c2nc(NCC4CC4)ncc32)CC1 [Compound 204, trans-1-((3-((Cyclopropylmethyl)amino)-5-(4-hydroxycyclohexyl)-6-oxo-5,6-dihydropyrimido[4,5-c]isoquinolin-8-yl)methyl)piperidine-4-carbonitrile]
2 | 11300 nM | CN1CCN(Cc2ccc3c(c2)c(=O)n(C2CCN(C(=O)OC(C)(C)C)CC2)c2nc(NCC4CC4)ncc32)CC1 [Compound 188]
3 | 63.6 nM | O=c1c2cc(CN3CCN(c4ccncc4)CC3)ccc2c2cnc(NC3CC(F)(F)C3)nc2n1[C@H]1CC[C@H](O)CC1 [Compound 212, trans-3-((3,3-Difluorocyclobutyl)amino)-5-(4-hydroxycyclohexyl)-8-((4-(pyridin-4-yl)piperazin-1-yl)methyl)pyrimido[4,5-c]isoquinolin-6(5H)-one]
4 | 240 nM | CN1CCN(Cc2ccc3c(c2)c(=O)n([C@H]2CC[C@H](O)CC2)c2nc(NC4CC4)ncc32)CC1 [Compound 196, trans-3-(Cyclopropylamino)-5-(4-hydroxycyclohexyl)-8-((4-methylpiperazin-1-yl)methyl)pyrimido[4,5-c]isoquinolin-6(5H)-one]
5 | 116 nM | CCCCNc1ncc2c3ccc(CN4CCOCC4)cc3c(=O)n(CC3CCC(N)CC3)c2n1 (stereo not shown) [Compound 9, 5-((4-Aminocyclohexyl)methyl)-3-(butylamino)-8-(morpholinomethyl)pyrimido [4,5-c]isoquinolin-6(5H)-one]
6 | 483 nM | O=c1c2cc(N3CCN(C4CC4)CC3)ccc2c2cnc(NCC3CC3)nc2n1[C@H]1CC[C@H](O)CC1 [Compound 177]
7 | 1910 nM | CCCCNc1ncc2c3ccc(CN4CCN(C)CC4)cc3c(=O)n([C@H]3CC[C@H](NC(=O)OC(C)(C)C)C3)c2n1 [Compound 231, tert-butyl ((1S,3S)-3-(3-(butylamino)-8-((4-methylpiperazin-1-yl)methyl)-6-oxopyrimido[4,5-c]isoquinolin-5(6H)-yl)cyclopentyl)carbamate]
8 | 247 nM | CCC(F)(F)CNc1ncc2c3ccc(CN4CCOCC4)cc3c(=O)n([C@H]3CC[C@H](O)CC3)c2n1 [Compound 1, trans-3-((2,2-Difluorobutyl)amino)-5-(4-hydroxycyclohexyl)-8-(morpholinomethyl)pyrimido [4,5-c]isoquinolin-6(5H)-one]
9 | 115 nM | O=c1c2cc(CN3CCN4CCC3CC4)ccc2c2cnc(NCC3CC3)nc2n1[C@H]1CC[C@H](O)CC1 [Compound 58, trans-8-((1,4-Diazabicyclo[3.2.2]nonan-4-yl)methyl)-3-((cyclopropylmethyl)amino)-5-(4-hydroxycyclohexyl)pyrimido [4,5-c]isoquinolin-6(5H)-one]
10 | 13.9 nM | O=c1c2cc(CN3CCC4(CC3)COC4)ccc2c2cnc(NC3CCC3)nc2n1[C@H]1CC[C@H](O)CC1 [Compound 209, trans-8-((2-Oxa-7-azaspiro[3.5]nonan-7-yl)methyl)-3-(cyclobutylamino)-5-(4-hydroxycyclohexyl)pyrimido[4,5-c]isoquinolin-6(5H)-one]
11 | 221 nM | CN1CCN(c2ccc3c(c2)c(=O)n([C@H]2CC[C@H](O)CC2)c2nc(NC4CC(F)(F)C4)ncc32)CC1 [Compound 85, trans-3-((3,3-Difluorocyclobutyl)amino)-5-(4-hydroxycyclohexyl)-8-(4-methylpiperazin-1-yl)pyrimido[4,5-c]isoquinolin-6(5H)-one]
12 | 126 nM | CCCCNc1ncc2c3ccc(CN4CCN(C)CC4)cc3c(=O)n([C@H]3CC[C@H](C#N)CC3)c2n1 [Compound 128]
13 | 875 nM | CN1CCN(Cc2ccc3c(c2)c(=O)n(C2CCNCC2)c2nc(NCC4CC4)ncc32)CC1 [Compound 191]
14 | 354 nM | O=c1c2cc(N3CCN(CC(F)F)CC3)ccc2c2cnc(NCC3CC3)nc2n1[C@H]1CC[C@H](O)CC1 [Compound 105, trans-3-((Cyclopropylmethyl)amino)-8-(4-(2,2-difluoroethyl)piperazin-1-yl)-5-(4-hydroxycyclohexyl)pyrimido [4,5-c]isoquinolin-6(5H)-one]
15 | 174 nM | CCCCNc1ncc2c3ccc(CN4CCOCC4)cc3c(=O)n([C@H]3CC[C@@H](O)CC3)c2n1 [Compound 4, cis-3-(Butylamino)-5-(4-hydroxycyclohexyl)-8-(morpholinomethyl)pyrimido [4,5-c]isoquinolin-6(5H)-one]
16 | 21.9 nM | CCCCNc1ncc2c3ccc(N4CCN(C5COC5)CC4)cc3c(=O)n([C@H]3CC[C@H](O)CC3)c2n1 [Compound 77, trans-3-(Butylamino)-5-(4-hydroxycyclohexyl)-8-(4-(oxetan-3-yl)piperazin-1-yl)pyrimido[4,5-c]isoquinolin-6(5H)-one]
17 | 13.1 nM | CCCCNc1ncc2c3ccc(N4CCN(C)[C@H](C)C4)cc3c(=O)n([C@H]3CC[C@H](O)CC3)c2n1 [Compound 90, trans-3-(Butylamino)-8-((R)-3,4-dimethylpiperazin-1-yl)-5-(4-hydroxycyclohexyl)pyrimido [4,5-c]isoquinolin-6(5H)-one]
18 | 36.3 nM | O=c1c2cc(CN3CCSCC3)ccc2c2cnc(NCC3CC3)nc2n1[C@H]1CC[C@H](O)CC1 [Compound 170]
19 | 46.7 nM | O=c1c2cc(CN3CCN(C4COC4)CC3)ccc2c2cnc(NCC3CC3)nc2n1[C@H]1CC[C@H](O)CC1 [Compound 35, trans-3-((Cyclopropylmethyl)amino)-5-(4-hydroxycyclohexyl)-8-((4-(oxetan-3-yl)piperazin-1-yl)methyl)pyrimido[4,5-c]isoquinolin-6(5H)-one]
20 | 19.9 nM | CCCCNc1ncc2c3ccc(N4CCN(C)CC4)cc3c(=O)n(C3CCC(C)(O)CC3)c2n1 (stereo not drawn) [Compound 86, trans-3-(Butylamino)-5-(4-hydroxy-4-methylcyclohexyl)-8-(4-methylpiperazin-1-yl)pyrimido[4,5-c]isoquinolin-6(5H)-one]
21 | 47.3 nM | O=c1c2cc(CN3CCCCC3)ccc2c2cnc(NCC3CC3)nc2n1[C@H]1CC[C@H](O)CC1 [Compound 202, trans-3-((Cyclopropylmethyl)amino)-5-(4-hydroxycyclohexyl)-8-(piperidin-1-ylmethyl)pyrimido[4,5-c]isoquinolin-6(5H)-one]
22 | 358 nM | CCC(F)(F)CNc1ncc2c3ccc(N4CCN(C)CC4)cc3c(=O)n([C@H]3CC[C@H](O)CC3)c2n1 [Compound 93, trans-3-((2,2-Difluorobutyl)amino)-5-(4-hydroxycyclohexyl)-8-(4-methylpiperazin-1-yl)pyrimido[4,5-c]isoquinolin-6(5H)-one]
23 | 1080 nM | O=c1c2cc(N3CC4(COC4)C3)ccc2c2cnc(NC3CC(F)C3)nc2n1[C@H]1CC[C@H](O)CC1 (stereo partly drawn) [Compound 75, trans-3-((3-Fluorocyclobutyl)amino)-5-(4-hydroxycyclohexyl)-8-(2-oxa-6-azaspiro[3.3]heptan-6-yl)pyrimido[4,5-c]isoquinolin-6(5H)-one]
24 | 113 nM | O=c1c2cc(N3CCN4CCC3CC4)ccc2c2cnc(NCC3CC3)nc2n1C1CCC(O)CC1 (stereo not shown) [Compound 163]
25 | 401 nM | O=c1c2cc(CN3CC[S+]([O-])CC3)ccc2c2cnc(NCC3CC3)nc2n1[C@H]1CC[C@H](O)CC1 [Compound 52, trans-3-((cyclopropylmethyl)amino)-5-(4-hydroxycyclohexyl)-8-((1-oxidothiomorpholino)methyl) pyrimido[4,5-c]isoquinolin-6(5H)-one]
26 | 73 nM | CN1CCN(Cc2ccc3c(c2)c(=O)n([C@H]2CC[C@H](NC(=O)CC#N)CC2)c2nc(NCC4CC4)ncc32)CC1 [Compound 190, trans-2-Cyano-N-(4-(3-((cyclopropylmethyl)amino)-8-((4-methylpiperazin-1-yl)methyl)-6-oxopyrimido[4,5-c]isoquinolin-5(6H)-yl)cyclohexyl)acetamide]
27 | 170 nM | O=c1c2cc(N3CCNCC3)ccc2c2cnc(NCC3CC3)nc2n1[C@H]1CC[C@H](O)CC1 [Compound 108, trans-3-((Cyclopropylmethyl)amino)-5-(4-hydroxycyclohexyl)-8-(piperazin-1-yl)pyrimido[4,5-c]isoquinolin-6(5H)-one]

Row | Structure (SMILES) | EC50
28 | CCCCNc1ncc2c3ccc(CN4CCN(C)CC4)cc3c(=O)n([C@@H]3CC[C@@H](O)C3)c2n1 [Compound 235, 3-(butylamino)-5-((1R,3R)-3-hydroxycyclopentyl)-8-((4-methylpiperazin-1-yl)methyl)pyrimido[4,5-c]isoquinolin-6(5H)-one] | 264 nM

— patent US11110082B2, “Tyrosine kinase inhibitors” (Rigel Pharmaceuticals, Inc., priority 2016, dated 2021)
